Paper PMC8610152, “Residue substitution enhances the immunogenicity of neoepitopes from gastric cancers” (Cancer Biology & Medicine, 2021)
“Also recorded” adds a separate entry of the source.

Columns and labels:
[1] = target: T1, HLA-A0201 molecules on the T2 cell surface (Homo sapiens, UniProt P04439, D140Y/D185E/D98H/E176V/E277Q/G131W/G231S/I119V/I121R/I166T/I218V/L300P/L318F/N151K/N90K/P208A/P217A/Q86G/Q94H/R138H/R169H/T345S); assay: T2 binding (affinity) assay; settings: T2 cells 1 × 10^6 cells/well, 50 µg epitope + 3 µg β2M in 1 mL FBS-free RPMI1640, 37 °C, 18 h, PE-HLA-A2 antibody, flow cytometry, FI = (MFI epitope – MFI control)/MFI control, mean ± SD
T1 construct: The MFI (mean fluorescence intensity) of HLA-A0201 molecules on the T2 cell surface was detected by flow cytometry; endogenous in cells; host or cells: T2 cells
Experimental: The T2 cells were placed in a 24-well plate at a density of 1 × 10^6 cells/well; 50 µg epitope and 3 µg β2M (Merck, Kenilworth, NJ, USA) were then added and incubated in 1 mL fetal bovine free (FBS)-free RPMI1640 medium (Invitrogen, Carlsbad, CA, USA) at 37 °C for 18 h. T2 cells were washed twice with phosphate-buffered saline (PBS), treated with 20 µL PE-HLA-A2 fluorescent antibody (BD Biosciences, San Jose, CA, USA), incubated in the dark for 30 min, and then washed with PBS once. The MFI (mean fluorescence intensity) of HLA-A0201 molecules on the T2 cell surface was detected by flow cytometry (BD Biosciences). The formula used for calculating the fluorescence index was as follows: FI = (MFI of the epitope group – MFI of the control group)/MFI of the control group.

naïve CD8+ T cells = assay: CFSE proliferation of CD8+ T cells stimulated by neoepitope-loaded DCs; format: cell-based, human; settings: DCs loaded with 10 µg/mL neoepitope, T cells:DCs 10:1, two rounds of 7 days, flow cytometry, mean ± SD
Experimental: (§1) To elicit neoepitope-specific CD8^+ T cell responses, peripheral blood mononuclear cells (PBMCs) were isolated from healthy HLA-A0201 volunteer donors using lymphocyte separation medium (MP Biomedicals, Burlingame, CA, USA). This protocol was approved by the Ethics Committee of Fujian Cancer Hospital (Approval No. SQ2017-032-01). PBMCs were seeded into a 6-well plate and incubated for 2 h. Adherent cells were then induced to differentiate into dendritic cells (DCs) with 581 medium (Corning, NY, USA) in the presence of 100 ng/mL recombinant human GM-CSF (Mitenyi Biotec, Bergisch Gladbach, Germany) and 50 ng/mL recombinant human IL-4 (Mitenyi Biotec). DCs were sensitized with 10 µg/mL neoepitope, with a preparation without peptide serving as the control. After 24 h, 10 ng/mL IL-6 (Miltenyi Biotec), 10 ng/mL IL-1β (Miltenyi Biotec), 1 µg/mL CD40L (Miltenyi Biotec), and 10 ng/mL TNF-α (Mitenyi Biotec) were added for DC maturation. Next, naïve T cells were co-cultured for 7 days with DCs at a responder: stimulator ratio of 10:1. Medium was then replaced by half-fresh medium containing IL-2 (200 IU/mL, Jiangsu Kingsley Pharmaceutical, Nanjing, China) every 3 days. After another stimulation with neoepitope-loaded DCs for 7 days, CD8 MicroBeads (Mitenyi Biotec) were used to isolate positive CD8^+ T cells for subsequent experiments.
The naïve CD8^+ T cells were adjusted to 1 × 10^7 cells/mL and subjected to carboxyfluorescein succinimidyl ester (CFSE; Invitrogen) staining. The CFSE concentration was 1 µg/mL. Naïve CD8^+ T cells were incubated at 37 °C in the dark for 5 min. CFSE-labeled naïve CD8^+ T cells were incubated in 5 times the volume of 581 medium containing 5% FBS (PAN-Seratech, Aidenbach, Germany) in the dark for 2.5 min, centrifuged at 1,500 rpm for 5 min, and resuspended in 581 medium. The naïve CD8^+ T cells were co-cultured with DCs with different neoepitopes at a ratio of 10:1 (naive CD8^+ T cells: 1 × 10^6 cells: DCs: 1 × 10^5 cells). After co-culturing with DCs with different neoepitopes for 2 consecutive times, 7 days for each time, T cells were stained with 20 µL PerCP-CD3 fluorescent antibody (BD Biosciences) and 5 µL APC-CD8 fluorescent antibody (BD Biosciences) in the dark for 30 min. The CFSE abundance on the surface of T cells was detected by flow cytometry to determine the proliferation of T cells.

[2] = target: T2, pMHC complex (neoepitope/HLA-A0201) on T2 cells (Homo sapiens, UniProt P04439, D140Y/D185E/D98H/E176V/E277Q/G131W/G231S/I119V/I121R/I166T/I218V/L300P/L318F/N151K/N90K/P208A/P217A/Q86G/Q94H/R138H/R169H/T345S); assay: T2 stability assay of pMHC complex; format: binding; settings: for DC50 (time required for 50% dissociation of the pMHC complex stabilized at t = 0 h): T2 cells, 50 µg epitope + 3 µg β2M 18 h, 5 µg/mL brefeldin A 1 h, then 0, 6, 12, 18, 24 h at 37 °C, PE-HLA-A2 flow cytometry; for Stability of pMHC complexes (dissociation rate over 0-24 h, Figure 2B): in words, mean ± SD of 3 independent experiments
T2 construct: endogenous in cells; host or cells: T2 cells
Experimental: T2 cells were cultured with 50 µg of each epitope peptide and 3 µg β2M for 18 h in 1 mL FBS-free RPMI1640 medium at 37 °C in a 24-well plate using 1 × 10^6 cells/well. T2 cells were then incubated with 5 µg/mL brefeldin A (Abcam, Cambridge, UK) at 37 °C for another 1 h after washing twice with PBS. […] The MFI of the HLA-A0201 molecules in T2 cells was detected by flow cytometry. The results are expressed as DC50, which is the time required for 50% dissociation of the pMHC complex stabilized at t = 0 h.

neoepitope-specific CTLs [3] = assay: Intracellular perforin staining of CTLs; format: cell-based, human; settings: T cells:T2 cells loaded with wild-type neoepitopes 10:1, 24 h, brefeldin A 1 h, CD8+ gate, flow cytometry, mean ± SD of 3 independent experiments
Experimental: as §1
T cells and T2 cells loaded with wild-type neoepitopes were co-cultured at a ratio of 10:1 for 24 h, incubated in the presence of 5 µg/mL brefeldin A for 1 h, and washed with PBS once. The cells were stained with 20 µL PerCP-CD3 fluorescent antibody and 5 µL APC-CD8 fluorescent antibody in the dark for 30 min, followed by fixation with 100 µL Reagent A from a Intrasure Kit (BD Biosciences) in the dark for 5 min. Subsequently, the cells were permeabilized and stained with 50 µL Reagent B from the Intrasure Kit and 20 µL FITC-perforin fluorescent antibody (BD Biosciences) in the dark for 30 min. After washing with PBS once, the expression of perforin in T cells was detected by flow cytometry.

T cells = assay: IFN-γ ELISA, T cells co-cultured with neoepitope-loaded DCs; format: cell-based, human; settings: ELISA of co-culture supernatant; compared with wild-type neoepitope, P < 0.05
Experimental: as §1
(§2) The level of IFN-γ or TNF-α in the culture supernatants was detected using commercially available ELISA kits (Thermo Fisher Scientific, Waltham, MA, USA). Briefly, 96-well plates were coated with 100 µL/well capture antibody in coating buffer overnight. Plates were washed with wash buffer 3 times, 200 µL/well ELISA Diluent (1×) was added, and plates were incubated for 1 h. After washing with wash buffer twice, 100 µL/well of supernatants were added, incubated for 2 h, and washed with wash buffer 3 times, followed by addition of 100 µL/well antibodies against human IFN-γ/TNF-α. […] After incubation for 15 min, 100 µL/well stop solution was added to each well, and the optical density was measured using a microplate reader at 450 nm.

neoepitope-specific CTLs [4] = assay: IFN-γ ELISA, CTLs co-cultured with target cells; format: cell-based, human; settings: ELISA of supernatant; compared with CTLs stimulated by wild-type neoepitopes, P < 0.05
Experimental: as §1, §2

[5] = tested on: T2 cells loaded with wild-type neoepitopes; assay: LDH release cytotoxicity assay of neoepitope-specific CTLs; format: cell-based, human; settings: effector/target 20:1, 10:1, 5:1, 4 h, 37 °C, compared with wild-type neoepitope-specific CTLs
Experimental: as §1
The amount of lactate dehydrogenase (LDH) released from target cells incubated with neoepitope-specific T cells was measured using the CytoTox 96® Non-Radioactive Cytotoxicity Assay Kit (Promega, Madison, WI, USA). T2 cells loaded with neoepitopes were used as target cells at 1 × 10^4 cells/well in 96-well plates. […] After adding stop solution at 50 µL/well, the plates were analyzed using a microplate reader at a wavelength of 490 nm. The killing percentage of antigen-specific T cells to T2 cells loaded with neoepitopes was calculated according to the following formula: killing percentage = (experimental release – target spontaneous release – effector spontaneous release)/(target maximum release – target spontaneous release) × 100%.

neoepitope-specific CTLs [6] = assay: TNF-α ELISA, CTLs co-cultured with target cells; format: cell-based, human; settings: ELISA of supernatant; compared with CTLs stimulated by wild-type neoepitopes, P < 0.05
Experimental: as §1, §2

Sequence	FI (fluorescence index) [1]	Proliferation of specific CD8+ T cells (naïve CD8+ T cells)	DC50 (time required for 50% dissociation of the pMHC complex stabilized at t = 0 h) [2]	Perforin expression in CTLs (neoepitope-specific CTLs [3])	Stability of pMHC complexes (dissociation rate over 0-24 h, Figure 2B) [2]	IFN-γ secretion in T cells stimulated by DCs with neoepitopes (T cells)	IFN-γ released by CTLs co-cultured with target cells (neoepitope-specific CTLs [4])	Cytotoxicity of neoepitope-specific CTLs on T2 cells loaded with wild-type neoepitopes [5]	TNF-α released by CTLs co-cultured with target cells (neoepitope-specific CTLs [6])
FIGITATVV [mutABCA2]	3.32 ± 0.36	12.53% ± 1.79%	<18 h	29.87% ± 2.12%					
FLGITATVV [mutABCA2L2]	4.49 ± 0.42	16.47% ± 1.59%	>18 h	36.57% ± 2.01%	higher than those of wild-type neoepitopes	more IFN-γ than the wild-type neoepitopes	released more IFN-γ and TNF-α	killed a greater number of T2 cells loaded with wild-type neoepitopes	released more IFN-γ and TNF-α
PLLPVTCGV [mutSP140]	3.79 ± 0.50	18.87% ± 0.81%	>24 h	44.70% ± 1.68%					
SLIISVDGV [mutSTOML2]	4.71 ± 0.41	17.70% ± 1.14%	>18 h	41.30% ± 1.76%	higher than those of wild-type neoepitopes	more IFN-γ than the wild-type neoepitopes	released more IFN-γ and TNF-α	killed a greater number of T2 cells loaded with wild-type neoepitopes	released more IFN-γ and TNF-α
SVIISVDGV [mutSTOM]	4.27 ± 0.52	14.03% ± 0.76%	<18 h	35.53% ± 1.02%					
YLLPVTCGV [mutSP140Y1]		23.43% ± 1.17%		56.20% ± 1.28%	higher than those of wild-type neoepitopes; also recorded: more stable than mutSP140	more IFN-γ than the wild-type neoepitopes	released more IFN-γ and TNF-α	killed a greater number of T2 cells loaded with wild-type neoepitopes	released more IFN-γ and TNF-α
